Data taken from BindingDB's records for patent US11026923 (H. Lundbeck, 2021).
pIC50: −log10 of the molar value.

Columns and labels:
Assay in all cases: Inhibition Assay
[1] = target: Dual specificity calcium/calmodulin-dependent 3',5'-cyclic nucleotide phosphodiesterase 1A (Human, UniProt P54750)
Description: (§1) Reactions were initiated by addition of the cyclic nucleotide substrate, and reactions were allowed to proceed for 1 hr at room temperature before being terminated through mixing with 20 uL (0.2 mg) yttrium silicate SPA beads (PerkinElmer).

[2] = target: Dual specificity calcium/calmodulin-dependent 3',5'-cyclic nucleotide phosphodiesterase 1C (Human, UniProt Q14123)
Description: as §1

[3] = target: Dual specificity calcium/calmodulin-dependent 3',5'-cyclic nucleotide phosphodiesterase 1B (Homo sapiens, UniProt Q01064)
Chain of Dual specificity calcium/calmodulin-dependent 3',5'-cyclic nucleotide phosphodiesterase 1B (Q01064 whole entry): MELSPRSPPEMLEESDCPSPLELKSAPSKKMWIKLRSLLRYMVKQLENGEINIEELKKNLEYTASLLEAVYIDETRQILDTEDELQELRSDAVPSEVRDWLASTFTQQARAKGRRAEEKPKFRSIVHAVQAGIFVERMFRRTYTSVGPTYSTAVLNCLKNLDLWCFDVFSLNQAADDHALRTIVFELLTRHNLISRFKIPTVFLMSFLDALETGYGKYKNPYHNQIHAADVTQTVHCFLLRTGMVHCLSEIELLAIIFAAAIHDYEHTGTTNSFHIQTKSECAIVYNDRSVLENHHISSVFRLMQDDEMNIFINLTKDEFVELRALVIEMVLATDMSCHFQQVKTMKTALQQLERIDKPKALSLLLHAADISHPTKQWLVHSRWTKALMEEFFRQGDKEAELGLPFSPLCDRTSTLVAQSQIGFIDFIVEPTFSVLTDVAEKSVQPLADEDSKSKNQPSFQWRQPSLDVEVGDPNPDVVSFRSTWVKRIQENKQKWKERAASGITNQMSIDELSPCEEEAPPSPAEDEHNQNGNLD
Description: as §1

Chain of Dual specificity calcium/calmodulin-dependent 3',5'-cyclic nucleotide phosphodiesterase 1C (Q14123 whole entry): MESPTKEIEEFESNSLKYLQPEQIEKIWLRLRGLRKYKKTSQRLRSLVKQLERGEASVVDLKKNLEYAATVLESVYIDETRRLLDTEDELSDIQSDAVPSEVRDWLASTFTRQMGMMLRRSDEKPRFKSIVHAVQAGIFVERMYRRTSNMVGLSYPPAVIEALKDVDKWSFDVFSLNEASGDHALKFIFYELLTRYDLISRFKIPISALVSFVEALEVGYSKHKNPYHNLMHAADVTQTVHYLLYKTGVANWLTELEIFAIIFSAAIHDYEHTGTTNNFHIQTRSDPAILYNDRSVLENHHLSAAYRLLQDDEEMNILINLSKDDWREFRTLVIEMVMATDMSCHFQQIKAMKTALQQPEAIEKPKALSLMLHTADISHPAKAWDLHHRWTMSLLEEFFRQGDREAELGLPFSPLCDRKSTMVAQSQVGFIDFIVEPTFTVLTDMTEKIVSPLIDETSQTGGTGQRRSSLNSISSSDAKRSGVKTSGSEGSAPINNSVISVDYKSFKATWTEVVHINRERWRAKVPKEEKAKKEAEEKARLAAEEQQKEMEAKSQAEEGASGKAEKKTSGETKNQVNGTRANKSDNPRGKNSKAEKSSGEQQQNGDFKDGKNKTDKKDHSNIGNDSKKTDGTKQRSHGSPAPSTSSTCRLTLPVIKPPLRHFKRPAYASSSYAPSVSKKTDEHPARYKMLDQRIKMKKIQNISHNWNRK
Chain of Dual specificity calcium/calmodulin-dependent 3',5'-cyclic nucleotide phosphodiesterase 1A (P54750 whole entry): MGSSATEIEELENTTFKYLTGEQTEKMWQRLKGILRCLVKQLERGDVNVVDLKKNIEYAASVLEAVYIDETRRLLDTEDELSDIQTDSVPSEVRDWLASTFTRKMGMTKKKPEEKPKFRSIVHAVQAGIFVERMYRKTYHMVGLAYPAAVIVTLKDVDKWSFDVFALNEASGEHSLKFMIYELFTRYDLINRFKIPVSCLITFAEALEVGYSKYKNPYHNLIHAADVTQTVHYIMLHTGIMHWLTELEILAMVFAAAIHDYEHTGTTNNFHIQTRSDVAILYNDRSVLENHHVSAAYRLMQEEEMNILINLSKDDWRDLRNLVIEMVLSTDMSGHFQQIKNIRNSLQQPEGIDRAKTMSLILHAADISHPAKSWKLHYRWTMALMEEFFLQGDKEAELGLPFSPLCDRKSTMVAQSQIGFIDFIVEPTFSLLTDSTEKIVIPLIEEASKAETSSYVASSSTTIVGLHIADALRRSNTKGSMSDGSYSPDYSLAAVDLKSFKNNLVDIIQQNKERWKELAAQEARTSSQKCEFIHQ

SMILES	pIC50 [1]	pIC50 [2]	pIC50 [3]
COc1ccccc1/C=C/C(NCc1cnn(C)c1)=C1\CC(C)=NN1C(C)C [US11026923, Example 63]	7.19	7.70	8.03
CC1=NN(C(C)C)/C(=C(/C=C/c2ccsc2C)NCc2cnn(C)c2)C1 [US11026923, Example 65]	8.10		8.92
CC1=NN(C(C)C)/C(=C(/C=C/c2ccccc2)NCc2cnn(C)c2)C1 [US11026923, Example 64]	7.28	7.33	7.92
CC1=NN(C(C)C)/C(=C(/C=C/c2cn(C)nc2C)NCc2cnn(C)c2)C1 [US11026923, Example 61]	6.26	6.17	6.92
CC1=NN(C(C)C)/C(=C(/C=C/c2cnn(C)c2C)NCc2cnn(C)c2)C1 [US11026923, Example 66]	6.68	6.66	7.23
COc1ncccc1/C=C/C(NCc1cnn(C)c1)=C1\CC(C)=NN1C(C)C [US11026923, Example 62]	7.80	7.68	8.62
